Drawing on US20140051679A1, “KINASE INHIBITORS AND METHOD OF TREATING CANCER WITH SAME” (UNIVERISTY HEALTH NETWORKS, priority 2011, published 2014), this text covers GI50 and IC50 for eleven molecules.

In assay [1] the test system is PA-1 ovarian cancer cells. The assay can be described thus: Cell growth inhibition, Sulforhodamine B assay, PA-1. In kind it is cell-based. To be noted: 5 days culture, SRB assay, read-out: Cell Line GI50 Range PA-1.
For a further assay, the target named is T1, human TTK (Homo sapiens, UniProt P33981).
T1 construct: amino terminal GST fusion of full length human TTK; purchased Invitrogen
T1 sequence (P33981 1-857): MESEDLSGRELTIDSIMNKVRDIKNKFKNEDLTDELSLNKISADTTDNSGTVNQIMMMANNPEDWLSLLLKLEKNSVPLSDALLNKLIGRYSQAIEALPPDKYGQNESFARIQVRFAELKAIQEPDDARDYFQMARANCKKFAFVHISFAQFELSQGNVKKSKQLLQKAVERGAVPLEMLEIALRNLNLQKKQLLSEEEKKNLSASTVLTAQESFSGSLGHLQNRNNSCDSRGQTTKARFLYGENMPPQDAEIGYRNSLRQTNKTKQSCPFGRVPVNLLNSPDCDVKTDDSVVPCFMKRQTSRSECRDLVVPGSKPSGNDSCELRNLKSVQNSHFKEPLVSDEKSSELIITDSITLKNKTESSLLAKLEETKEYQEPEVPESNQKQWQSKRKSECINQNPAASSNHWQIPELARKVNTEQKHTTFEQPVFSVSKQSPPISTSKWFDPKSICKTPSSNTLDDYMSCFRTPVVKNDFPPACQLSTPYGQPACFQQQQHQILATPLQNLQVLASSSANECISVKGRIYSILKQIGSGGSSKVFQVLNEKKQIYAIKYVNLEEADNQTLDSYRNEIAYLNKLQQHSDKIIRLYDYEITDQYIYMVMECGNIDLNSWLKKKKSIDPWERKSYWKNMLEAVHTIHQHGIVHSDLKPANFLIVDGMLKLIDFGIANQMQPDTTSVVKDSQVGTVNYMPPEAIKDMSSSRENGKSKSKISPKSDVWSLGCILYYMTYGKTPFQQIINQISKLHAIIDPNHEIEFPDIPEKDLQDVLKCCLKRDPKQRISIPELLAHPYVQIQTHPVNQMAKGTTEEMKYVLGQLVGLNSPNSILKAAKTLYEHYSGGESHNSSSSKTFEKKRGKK
Briefly: TTK inhibition assay (indirect ELISA). It is filed as biochemical. To be noted: GST-TTK 0.68 nM, 16 μM ATP; read-out: IC50 Ranges TTK. (In general: An ELISA detects its analyte on a solid surface through an enzyme-linked reagent.)

The target in a further assay is T2, Aurora B (Homo sapiens, UniProt Q96GD4).
T2 construct: purchased Invitrogen PV3970
T2 sequence (Q96GD4 whole entry): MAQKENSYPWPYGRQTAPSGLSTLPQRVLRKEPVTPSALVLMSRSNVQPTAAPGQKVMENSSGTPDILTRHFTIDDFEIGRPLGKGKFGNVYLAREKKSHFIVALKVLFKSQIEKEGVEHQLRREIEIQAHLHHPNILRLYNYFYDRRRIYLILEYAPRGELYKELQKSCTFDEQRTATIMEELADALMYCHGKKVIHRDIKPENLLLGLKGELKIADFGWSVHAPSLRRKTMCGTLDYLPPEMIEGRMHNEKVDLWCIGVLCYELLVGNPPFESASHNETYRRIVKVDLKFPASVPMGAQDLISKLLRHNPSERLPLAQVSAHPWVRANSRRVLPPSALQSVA
Briefly: Aurora B inhibition assay (Z-Lyte). It is filed as biochemical. To be noted: 28 nM Aurora B, 128 μM ATP; read-out: IC50 Ranges Aurora B. As to the method: Aurora B inhibition was determined using the Z-Lyte assay kit from Invitrogen. The assay was performed using the recommended manufacturer's instructions with 128 μM ATP and 28 nM Aurora B (Invitrogen cat #PV3970). The % inhibition values were determined according to the manufacturer's directions and IC50 values were obtained using a non-linear 4 point logistic curve fit (XLfit4, IDBS)

For the next assay, the target named is T3, human PLK4 (Homo sapiens, UniProt O00444).
T3 construct: amino terminal GST fusion of residues 1-391 of human PLK4; made in house; host or cells: E. coli
T3 sequence (O00444 1-391): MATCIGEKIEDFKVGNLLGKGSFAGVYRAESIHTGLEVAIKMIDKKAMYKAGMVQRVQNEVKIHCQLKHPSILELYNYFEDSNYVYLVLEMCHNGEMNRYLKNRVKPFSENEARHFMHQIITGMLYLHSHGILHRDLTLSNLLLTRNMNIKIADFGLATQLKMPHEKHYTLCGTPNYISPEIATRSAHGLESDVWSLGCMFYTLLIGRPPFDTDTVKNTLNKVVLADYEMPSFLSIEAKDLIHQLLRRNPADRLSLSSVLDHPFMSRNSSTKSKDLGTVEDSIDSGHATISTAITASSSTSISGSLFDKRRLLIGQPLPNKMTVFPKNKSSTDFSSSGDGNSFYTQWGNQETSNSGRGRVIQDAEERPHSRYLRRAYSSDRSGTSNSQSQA
Briefly: PLK4 inhibition assay (indirect ELISA). To be noted: GST-PLK4 4 nM, 15 μM ATP; read-out: IC50 Ranges PLK4. In kind it is biochemical. Summed up: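 Compounds were tested either at a single 10 μM dose or across 10-point titrations (typically 0.5 to 0.001 μM), preincubated 15 min with 4 nM GST-PLK4 (human 1-391, dephosphorylated) before 15 μM ATP was added. MBP substrate phosphorylation over 30 min, pH 7.5 HEPES/MgCl2 buffer, read by HRP/TMB ELISA (450 nm). % inhibition vs. high-activity control; IC50 by logistic fit.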

The next assay has as its system HT29 colon cancer cells. The assay can be described thus: Cell growth inhibition, Sulforhodamine B assay, HT29. To be noted: 5 days culture, SRB assay, read-out: Cell Line GI50 Range HT29. It is filed as cell-based. A general note: In SRB staining, fixed cells bind dye roughly in proportion to their protein.
The test system of assay [2] is HCT116 colon cancer cells. Briefly: Cell growth inhibition, Sulforhodamine B assay, HCT116. In kind it is cell-based. To be noted: 5 days culture, SRB assay, read-out: Cell Line GI50 Range HCT116.
The test system of assay [3] is MDA-MB-231 breast cancer cells. Briefly: Cell growth inhibition, Sulforhodamine B assay, MDA-MB-231. It is filed as cell-based. To be noted: Homo sapiens, 120 h, 5 days culture, SRB assay, read-out: Cell Line GI50 Range MDA-MB-231.
For assay [4], the system named is MDA-MB-468 breast cancer cells. The assay can be described thus: Cell growth inhibition, Sulforhodamine B assay, MDA-MB-468. In kind it is cell-based. To be noted: 5 days culture, SRB assay, read-out: Cell Line GI50 Range MDA-MB-468.
Description: Breast cancer cells (MDA-MB-231, MDA-MB-468), colon cancer cells (HCT116, HT29) and ovarian cancer cells (PA-1, OVCAR-3) were seeded (1000 to 4000 in 80 μl per well depending on the cell growth rate) into 96 well plates 24 hours before compound overlay. Compounds were prepared as 10 mM stock solutions in 100% DMSO which were diluted with DMEM (Dulbecco's Modified Eagle's Medium) cell growth Medium (Invitrogen, Burlington, ON, Canada) containing 10% FBS (Fetal Bovine Serum) to concentrations ranging from 50 nM to 250 μM. Aliquots (20 μl) from each concentration were overlaid to 80 μl of the pre-seeded cells in the 96 well plates to make final concentrations of 10 nM to 50 μM. The cells were cultured for 5 days before the Sulforhodamine B assay (SRB) was performed to determine the compound's cell growth inhibition activity.
Sulforhodamine B (purchased from Sigma, Oakville, ON, Canada) is a water-soluble dye that binds to the basic amino acids of the cellular proteins. Thus, colorimetric measurement of the bound dye provides an estimate of the total protein mass that is related to the cell number. the cells are fixed in situ by gently aspirating off the culture media and adding 50 μl ice cold 10% Trichloroacetic Acid (TCA) per well and incubate at 4° C. for 30-60 min, The plates are washed with water five times and allowed to air dry for 5 min. Addition of 50 μl 0.4% (w/v) SRB solution in 1% (v/v) acetic acid to each well and incubatation for 30 min at RT completes the staining reaction. Following staining, plates are washed four times with 1% acetic acid to remove unbound dye and then allowed to air dry for 5 min. The stain is solubilized with 100 μl of 10 mM Tris pH 10.5 per well. Absorbance is read at 570 nm.
The percentage (%) of relative growth inhibition was calculated by comparing to DMSO treated only cells (100%). […] The GI50 was calculated using GraphPad PRISM software (GraphPad Software, Inc., San Diego, Calif., USA).

Where two headings read alike, the source gives them in different places.

One may read the GI50 as the concentration giving 50% growth inhibition. For orientation: IC50 means the concentration needed to halve the response being measured. Regarding `CCc1cccc(CC)c1NC(=O)Nc1ccc2[nH]nc(-c3ccc(N4CCOCC4)cc3)c2c1` [Example A86, 1-(2,6-diethylphenyl)-3-(3-(4-morpholinophenyl)-1H-indazol-5-yl)urea], the GI50 is no more than 5 µM in assay [1] (120 h); no more than 5 µM with HT29 colon cancer cells (Homo sapiens, HT-29, 120 h); no more than 5 µM in assay [2] (Homo sapiens, HCT-116, 120 h); no more than 5 µM in assay [3]; no more than 5 µM in assay [4] (Homo sapiens, 120 h). Also, the IC50 on human TTK, on Aurora B and at human PLK4 was no more than 5 µM throughout.
For `O=C(NC(c1ccccc1)C1CCC1)c1ccc2[nH]nc(-c3ccc(N4CCC(O)CC4)cc3)c2c1` (stereo not shown) [Example A100, N-(cyclobutyl(phenyl)methyl)-3-(4-(4-hydroxypiperidin-1-yl)phenyl)-1H-indazole-5-carboxamide], the GI50 in assay [1] (120 h) is no more than 5 µM; with HT29 colon cancer cells (Homo sapiens, HT-29, 120 h) it was no more than 5 µM; in assay [2] (Homo sapiens, HCT-116, 120 h) it was no more than 5 µM; in assay [3], no more than 5 µM; in assay [4] (Homo sapiens, 120 h), no more than 5 µM. Besides, the IC50 on human TTK, at Aurora B and on human PLK4 was no more than 5 µM in each case.
Take `COC1CCN(c2ccc(-c3n[nH]c4ccc(NC(=O)C(c5ccsc5)N5CCCC5)cc34)cc2)CC1` (stereo not shown) [Example A116, N-(3-(4-(4-methoxypiperidin-1-yl)phenyl)-1H-indazol-5-yl)-2-(pyrrolidin-1-yl)-2-(thiophen-3-yl)acetamide]: the GI50 in assay [1] (120 h) was no more than 5 µM; in the assay on HT29 colon cancer cells (Homo sapiens, HT-29, 120 h), no more than 5 µM; in assay [2] (Homo sapiens, HCT-116, 120 h) it was no more than 5 µM; in assay [3], no more than 5 µM; in assay [4] (Homo sapiens, 120 h), no more than 5 µM. For the same molecule, the IC50 at human TTK, on Aurora B and on human PLK4 was no more than 5 µM in each case.
Regarding `O=C(NC(c1ccccc1)C1CC1)c1ccc2[nH]nc(-c3ccc(N[C@H]4CC[C@H](O)CC4)cc3)c2c1` (single isomer, unassigned) [Example A106, rel-N-(cyclopropyl(phenyl)methyl)-3-(4-(((1r,4r)-4-hydroxycyclohexyl)amino)phenyl)-1H-indazole-5-carboxamide], the GI50 in assay [1] (120 h) is no more than 5 µM; with HT29 colon cancer cells (Homo sapiens, HT-29, 120 h), no more than 5 µM; in assay [2] (Homo sapiens, HCT-116, 120 h), no more than 5 µM; in assay [4] (Homo sapiens, 120 h) it was no more than 5 µM. The IC50 on human TTK, at Aurora B and on human PLK4 was no more than 5 µM throughout.
For the molecule `O=C(NC(c1ccsc1)C1CC1)c1ccc2[nH]nc(-c3ccc(OC4CCN(CCO)CC4)cc3)c2c1` (stereo not shown) [Example A117, N-(cyclopropyl(thiophen-3-methyl-3-yl)methyl)-3-(4-((1-(2-hydroxyethyl)piperidin-4-yl)oxy)phenyl)-1H-indazole-5-carboxamide], the GI50 in assay [1] (120 h) was no more than 5 µM; in the assay with HT29 colon cancer cells (Homo sapiens, HT-29, 120 h) it was no more than 5 µM; in assay [2] (Homo sapiens, HCT-116, 120 h), no more than 5 µM; in assay [4] (Homo sapiens, 120 h), no more than 5 µM. Further, the IC50 at human TTK, at Aurora B and at human PLK4 was no more than 5 µM in each case.
`O=C(NC(c1ccccc1)C1CC1)c1ccc2[nH]nc(-c3ccc(N4CCC(O)CC4)cc3)c2c1` (stereo not shown) [Example A84, N-(cyclopropyl(phenyl)methyl)-3-(4-(4-hydroxypiperidin-1-yl)phenyl)-1H-indazole-5-carboxamide]: the GI50 was no more than 5 µM in assay [1] (120 h); no more than 5 µM with HT29 colon cancer cells (Homo sapiens, HT-29, 120 h); no more than 5 µM in assay [2] (Homo sapiens, HCT-116, 120 h); no more than 5 µM in assay [4] (Homo sapiens, 120 h). For the same molecule, the IC50 on human TTK, at Aurora B and on human PLK4 was no more than 5 µM throughout.
Consider `O=C(Nc1ccc2[nH]nc(-c3ccc(NC4CCC(O)CC4)cc3)c2c1)C(c1ccsc1)N1CCCC1` (stereo not drawn) [Example A105, rel-N-(3-(4-(((1r,4r)-4-hydroxycyclohexyl)amino)phenyl)-1H-indazol-5-yl)-2-(pyrrolidin-1-yl)-2-(thiophen-3-yl)acetamide], for which the GI50 (in assay [1]; in the assay with HT29 colon cancer cells; in assay [2]; in assay [4]) was no more than 5 µM each time. Moreover, the half-maximal inhibitory concentration (IC50) on human TTK, at Aurora B and at human PLK4 was no more than 5 µM in each case.
Consider `CN1CCOc2ccc(-c3n[nH]c4ccc(NC(=O)C(c5ccsc5)N5CCCC5)cc34)cc2C1` (stereo not shown) [Example A90, N-(3-(4-methyl-2,3,4,5-tetrahydrobenzo[f][1,4]oxazepin-7-yl)-1H-indazol-5-yl)-2-(pyrrolidin-1-yl)-2-(thiophen-3-yl)acetamide], for which the GI50 in assay [1] (120 h) is no more than 5 µM; in the assay with HT29 colon cancer cells (Homo sapiens, HT-29, 120 h) it was no more than 5 µM; in assay [2] (Homo sapiens, HCT-116, 120 h) it was no more than 5 µM; in assay [3] it was no more than 5 µM; in assay [4] (Homo sapiens, 120 h), no more than 5 µM. Further, the IC50 on human TTK, on Aurora B and on human PLK4 was no more than 5 µM throughout.
Regarding `COCCN1CCC(Oc2ccc(-c3n[nH]c4ccc(NC(=O)[C@H](OC)c5ccccc5)cc34)cc2)CC1` [Example A107, (R)-2-methoxy-N-(3-(4-((1-(2-methoxyethyl)piperidin-4-yl)oxy)phenyl)-1H-indazol-5-yl)-2-phenylacetamide], the 50% growth inhibitory concentration (GI50) in assay [1] (120 h) is no more than 5 µM; in the assay on HT29 colon cancer cells (Homo sapiens, HT-29, 120 h), no more than 5 µM; in assay [2] (Homo sapiens, HCT-116, 120 h), no more than 5 µM; in assay [3], 5 to 20 µM; in assay [4] (Homo sapiens, 120 h), no more than 5 µM. For the same molecule, the IC50 at human TTK, on Aurora B and at human PLK4 was no more than 5 µM throughout.
Turning to `C[C@@H]1CCCN1[C@@H](C(=O)Nc1ccc2[nH]nc(-c3ccc(N4CCOCC4)cc3)c2c1)c1ccsc1` [Example A97, (R)-2-((R)-2-methylpyrrolidin-1-yl)-N-(3-(4-morpholinophenyl)-1H-indazol-5-yl)-2-(thiophen-3-yl)acetamide], the GI50 in assay [1] (120 h) is no more than 5 µM; in the assay on HT29 colon cancer cells (Homo sapiens, HT-29, 120 h), no more than 5 µM; in assay [2] (Homo sapiens, HCT-116, 120 h), no more than 5 µM; in assay [4] (Homo sapiens, 120 h), no more than 5 µM. Besides, the IC50 at human TTK, at Aurora B and at human PLK4 was no more than 5 µM throughout.
Turning to `O=C(Nc1ccc2[nH]nc(-c3ccc(N4CCC(O)CC4)cc3)c2c1)C(c1cccs1)N1CCCC1` (stereo not shown) [Example A88, N-(3-(4-(4-hydroxypiperidin-1-yl)phenyl)-1H-indazol-5-yl)-2-(pyrrolidin-1-yl)-2-(thiophen-2-yl)acetamide], the 50% growth inhibitory concentration (GI50) was no more than 5 µM in assay [1] (120 h); no more than 5 µM with HT29 colon cancer cells (Homo sapiens, HT-29, 120 h); no more than 5 µM in assay [2] (Homo sapiens, HCT-116, 120 h); no more than 5 µM in assay [4] (Homo sapiens, 120 h). For the same molecule, the IC50 on human TTK, at Aurora B and at human PLK4 was no more than 5 µM in each case.
